Source: patent EP0217372A2, “Polyoxygenated labdane derivatives, process for their preparation and their use as medicaments” (HOECHST AKTIENGESELLSCHAFT, priority 1985, dated 1987)
Values after ≈ are worked out from the molar mass of the structure shown. Like-named read-outs stand apart in the source and are kept apart here. Values belong to the compound of their own block, whether it stands above or below them.

Tests used:
Meerschweinchen-Vorhof = experiment: Electrically stimulated left atrium, contractile force; conditions: contractile force of electrically stimulated left atrium, recorded 7 to 10 min
Excerpt: 2. Elektrisch stimulierter linker Vorhof
Es wird ein Meerschweinchen männlichen oder weiblichen Geschlechts mit einem Gewicht von 400 g getötet, das Herz entnommen und bei Zimmertemperatur in Ringerlösung eingebracht. Dann wird der linke Vorhof isoliert, an einem Organhalter befestigt und das Präparat in ein Organbad mit Ringerlösung von Zimmertemperatur gebracht. In das Organbad wird ein lebhafter Strom eines Gemisches von Kohlendioxid und Sauerstoff (95 % 02 und 5 % C02) geleitet. Dann wird der linke Vorhof elektrisch stimuliert. Anschließend wird aus einer der erfindungsgemäßen Verbindungen oder ih- rem Salz gegebenenfalls unter Verwendung von stöchiometrischer wäßriger 0,1 n HC1-Lösung eine wäßrige Lösung bekannter Konzentrationen hergestellt.
Diese Lösung wird dem Bad zugesetzt und die Kontraktionskraft des Vorhofes 7 bis 10 Minuten lang auf einem 4-Kanal-Kohden-Rekorder registriert. Die Wirkung wird aus den ermittelten Daten als EC50 berechnet angegeben.

[1] = tested on: Isoliertes Meerschweinchenherz; experiment: Isolated guinea pig heart (Langendorff method); parameters: species or system Meerschweinchen; conditions: Cavia porcellus, Dosis 10 µg injected into the aorta
Excerpt: 1. Isoliertes Meerschweinchenherz (Langendorff-Methode)
Es wird ein Meerschweinchen männlichen oder weiblichen Geschlechts mit einem Gewicht zwischen 300 und 400 g getötet und das Herz mit einem kleinen Teil der Aorta entnommen. Das Herz wird umgehend in einen Perfusionsapparat gebracht, in dem die Aorta auf der Glaskanüle fixiert wird. Die aus oxygenierter Ringerlösung bestehende Perfusionslösung wird bei konstantem Druck aus dem Behälter zugeführt, der durch aus dem Thermostat zirkulierendes Wasser auf 37°C angewärmt wird. Die zu untersuchenden Verbindungen der Erfindung werden zur Herstellung einer Lösung mit bekannter Konzentration unter Verwendung stöchiometrischer 0,1 n HC1 bzw. deren Salze direkt in Wasser gelöst. Die erhaltene Lösung wird durch eine Polyäthylenkanüle direkt in die Aorta injiziert und die Wirkungen auf die Kontraktionskraft, Herzfrequenz und Koronardurchblutung auf einem 3-Kanal-Physioscribe-Rekorder aufgezeichnet. Die prozentuale Zu- oder Abnahme der inotropen Wirkung wird nach dem intialen Ausgangswert berechnet.

Augeninnendruck (IOP) = experiment: Intraocular pressure in the conscious rabbit; assay type: in vivo, Kaninchen; conditions: Dosis 2 %; for Senkung des IOP: 100 µl instilled into one eye, percent decrease from baseline; for Dauer: duration of the IOP-lowering effect
Excerpt: Messung des Augeninnendruckes am wachen Kaninchen
Für die Untersuchung wird ein männliches oder weibliches Kaninchen mit einem Gewicht von 2 bis 3 k^g ausgewählt. Der Augeninnendruck (IOP) wird nach vorheriger Hornhautanästhesie mit 2 % Novocain-Lösung mit einem Schioetz-Tonometer gemessen. Zur Herstellung einer 2 %igen wäßrigen Lösung wird eine Verbindung der Formel I unter Verwendung von stöchiometrischer wäßriger 0,1 n HCI-Lösung oder ein Salz einer solchen Verbindung direkt in Wasser gelöst. […] Der IOP wird in Abständen von 0,5, 1, 2, 3, 4 und 5 Stunden gemessen. Die prozentuale Abnahme des IOP wird anhand des Ausgangswertes berechnet.

systolischer Blutdruck = experiment: Blood pressure lowering in conscious spontaneously hypertensive rats (tail cuff); assay type: in vivo, SH-Ratten; conditions: 25 mg/kg oral once daily for 5 days; difference from baseline, 2 hours after dosing
Excerpt: Blutdrucksenkung bei wachen hypertonen Ratten
Die blutdrucksenkende Wirkung wird bei wachen Ratten mit spontaner Hyperonie (SH) ermittelt. Eingesetzt werden dazu männliche SH-Ratten (250 - 300 g, 12 - 16 Wochen alt) des Wistar-Okamoto-Stammes aus eigener Züchtung. Vor der Blutdruckmessung werden die Ratten 10 Minuten bei 37'C in einer Wärmekammer aufgewärmt. Der systolische Blutdruck wird bei den wachen Ratten mittels Schwanzmanschetten-Methode gemessen, wobei ein piezoelektrischer Kristall zur Anzeige des Druckpulses, ein aneroides Manometer zur Druckmessung und ein Kardioskop (BPL-India) zur Anzeige des Verschwindens und/oder Auftretens des Druckpulses verwendet wird.
Die zu testenden erfindungsgemäßen Verbindungen werden unter Verwendung von stöchiometrischer 0,1 n HCl-Lösung bzw. die Salze direkt in Wasser gelöst und in dieser Form den SH-Ratten 5 Tage lang einmal täglich in einer Dosierung von 25 mg/kg oral verabreicht. Eine Gruppe dient als Kontrolle und erhält das Vehikel. Der systolische Blutdruck wird vor der ersten Verabreichung des Medikamentes und 2 Stunden danach registriert. Eine Senkung des systolischen Blutdruckes ist die Differenz zwischen dem Blutdruck nach der Behandlung und dem Ausgangswert.

Narkotisierter Hund = experiment: In vivo test in the anaesthetised dog (left ventricular dp/dt max); parameters: species or system Beagle-Hunde; conditions: Canis lupus familiaris, iv; injected into the femoral vein, pentobarbital anaesthesia
Description: 3. In vivo-Tests am narkotisierten Hund
Beagle-Hunde beiderlei Geschlechts mit einem Gewicht zwischen 10 und 15 kg werden mit Na-Pentobarbitol (35 mg/kg, i.v.) narkotisiert. Nach Einführen eines Endotrachealtubus werden die Femoralarterie und -vene mit einer Kanüle zur Messung des Blutdrucks bzw. zur Verabreichung von Medikamenten versehen. Der Druck des linken Ventrikels wird mit Hilfe eines Millar-Katheters gemessen und dp/dt max wird berechnet mit einem Hugo-Sachs-Differentiometer. Die Herzfrequenz wird mit Hilfe eines Kardiotachometers aus ECG-Signalen bestimmt. Alle kontinuierlich gemessenen Parameter werden mit einem Hellige-Sechs-Kanal-Recorder aufgezeichnet.
Die zu untersuchenden erfindungsgemäßen Verbindungen werden in destilliertem Wasser gelöst. In allen Experimenten werden 1%ige Lösungen verwendet. Die Lösungen werden in die Femoralvene injiziert und die Dosis-Wirkung-Relation berechnet.

[2] = read-out: % Zunahme der Chronotropen Wirkung
[3] = read-out: % Zunahme der Koronardurchblutung
[4] = relative to initial baseline, read-out: % Zunahme der Inotropen Wirkung

EC50 (Meerschweinchen-Vorhof): 30 mg/L (≈ 56 µM)
SMILES: C=CC1(C)CC(=O)C2(O)C(C)(O1)C(O)C(OC(=O)CCCCN1CCCCC1)C1C(C)(C)CCC(O)C12C (stereo not shown) [the 4th table, row 5]

EC50 (Meerschweinchen-Vorhof): 2.3 mg/L (≈ 4.66 µM)
SMILES: C=C[C@@]1(C)CC(=O)[C@]2(O)[C@@]3(C)[C@@H](O)CCC(C)(C)[C@@H]3[C@H](OC(=O)CN3CCCCC3)[C@H](O)[C@@]2(C)O1
activation at 0.01 mg [1, 2]: 27%
activation at 0.01 mg [1, 3]: 40%
activation at 0.01 mg [1, 4]: 32%

EC50 (Meerschweinchen-Vorhof): 30 mg/L (≈ 58.6 µM)
SMILES: C=C[C@@]1(C)CC(=O)[C@]2(O)[C@@]3(C)[C@@H](O)CCC(C)(C)[C@@H]3[C@H](O)[C@H](OC(=O)CN3CCSCC3)[C@@]2(C)O1

EC50 (Meerschweinchen-Vorhof): 30 mg/L (≈ 56 µM)
SMILES: C=CC1(C)CC(=O)C2(O)C(C)(O1)C(OC(=O)CCCCN1CCCCC1)C(O)C1C(C)(C)CCC(O)C12C (stereo not shown)

SMILES: C=CC1(C)CC(=O)C2(O)C(C)(O1)C(O)C(O)C1C(C)(C)CCC(OC(=O)CN3CCCCC3)C12C (stereo not shown)
Senkung des IOP (Augeninnendruck (IOP)): 18%
Dauer (Augeninnendruck (IOP)): 2 Std.

SMILES: C=CC1(C)CC(=O)C2(O)C(C)(O1)C(OC(=O)CN1CCCCC1)C(O)C1C(C)(C)CCC(O)C12C (stereo not shown)
Senkung des systolischen Blutdruckes (systolischer Blutdruck): 35

EC50 (Meerschweinchen-Vorhof): 0.35 mg/L (≈ 0.706 µM)
SMILES: C=C[C@@]1(C)CC(=O)[C@]2(O)[C@@]3(C)[C@@H](O)CCC(C)(C)[C@@H]3[C@H](O)[C@H](OC(=O)CN3CCOCC3)[C@@]2(C)O1
activation at 0.01 mg [1, 2]: 35%
activation at 0.01 mg [1, 3]: 100%
activation at 0.01 mg [1, 4]: 37%

EC50 (Meerschweinchen-Vorhof): 1.5 mg/L (≈ 2.93 µM)
SMILES: C=C[C@@]1(C)CC(=O)[C@]2(O)[C@@]3(C)[C@@H](O)CCC(C)(C)[C@@H]3[C@H](OC(=O)CN3CCSCC3)[C@H](O)[C@@]2(C)O1
ED50 (Narkotisierter Hund): > 3 mg/kg

EC50 (Meerschweinchen-Vorhof): > 30 mg/L
SMILES: C=CC1(C)CC(=O)C2(O)C(C)(O1)C(OC(=O)Cn1nnc3ccccc31)C(O)C1C(C)(C)CCC(O)C12C (stereo not shown)

EC50 (Meerschweinchen-Vorhof): > 3 mg/L
SMILES: C=C[C@@]1(C)CC(=O)[C@]2(O)[C@@]3(C)[C@@H](O)CCC(C)(C)[C@@H]3[C@H](O)[C@H](OC(=O)CCN3C(=O)c4ccccc4C3=O)[C@@]2(C)O1

EC50 (Meerschweinchen-Vorhof): 30 mg/L (≈ 59.1 µM)
SMILES: C=CC1(C)CC(=O)C2(O)C(C)(O1)C(O)C(OC(=O)CN1CCCC(C)C1)C1C(C)(C)CCC(O)C12C (stereo not shown)

EC50 (Meerschweinchen-Vorhof): 30 mg/L (≈ 59.1 µM)
SMILES: C=C[C@@]1(C)CC(=O)[C@]2(O)[C@@]3(C)[C@@H](O)CCC(C)(C)[C@@H]3[C@H](O)[C@H](OC(=O)CN3CCCC(C)C3)[C@@]2(C)O1 (stereo partly shown)

Meerschweinchen-Vorhof EC50 (Meerschweinchen-Vorhof): 10 mg/L
SMILES: C=C[C@@]1(C)CC(=O)[C@]2(O)[C@@]3(C)[C@@H](O)CCC(C)(C)[C@@H]3[C@H](O)[C@H](OC(=O)C(C)N3CCOCC3)[C@@]2(C)O1 (stereo partly shown) [the 1st table, row 7]
activation at 0.01 mg [1, 2]: 20%
activation at 0.01 mg [1, 3]: -5%
activation at 0.01 mg [1, 4]: 18%
ED50 (Narkotisierter Hund): 0.04 mg/kg

SMILES: C=CC1(C)CC(=O)C2(O)C(C)(O1)C(OC(=O)Cn1cnc3c1c(=O)n(C)c(=O)n3C)C(O)C1C(C)(C)CCC(O)C12C (stereo not shown)
Senkung des IOP (Augeninnendruck (IOP)): 21%
Dauer (Augeninnendruck (IOP)): > 6 Std.

EC50 (Meerschweinchen-Vorhof): 1.9 mg/L (≈ 3.74 µM)
SMILES: C=CC1(C)CC(=O)C2(O)C(C)(O1)C(O)C(OC(=O)CN1CCCCCC1)C1C(C)(C)CCC(O)C12C (stereo not shown)
